Data as given in ChEMBL document CHEMBL1152806, “Discovery of a potent, selective, and orally efficacious pyrimidinooxazinyl bicyclooctaneacetic acid diacylglycerol acyltransferase-1 inhibitor” (J Med Chem, 2009).
pIC50: −log10 of the molar value.

Biological target: T1, Diacylglycerol O-acyltransferase 1 (Homo sapiens, UniProt O75907)
T1 sequence (O75907 whole entry): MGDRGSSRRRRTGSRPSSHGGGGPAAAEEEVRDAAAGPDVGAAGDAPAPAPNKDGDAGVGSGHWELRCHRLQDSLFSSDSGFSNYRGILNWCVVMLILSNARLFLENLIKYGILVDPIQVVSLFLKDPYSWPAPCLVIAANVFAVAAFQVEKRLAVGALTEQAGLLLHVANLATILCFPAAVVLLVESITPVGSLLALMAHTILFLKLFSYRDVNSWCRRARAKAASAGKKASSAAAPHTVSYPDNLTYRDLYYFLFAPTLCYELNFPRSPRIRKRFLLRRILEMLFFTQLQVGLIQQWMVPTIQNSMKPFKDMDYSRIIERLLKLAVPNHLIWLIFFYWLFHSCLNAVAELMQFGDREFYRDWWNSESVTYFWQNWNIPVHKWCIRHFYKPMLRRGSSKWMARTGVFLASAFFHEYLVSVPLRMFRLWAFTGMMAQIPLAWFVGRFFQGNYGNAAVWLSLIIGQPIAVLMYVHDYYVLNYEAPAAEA
Assay: Inhibition of human recombinant DGAT1 expressed in Sf9 cells by liquid scintillography

pIC50: 7.55
Structure (SMILES): CC1(C)Oc2ncnc(N)c2N=C1c1ccc(C23CCC(C(=O)O)(CC2)CC3)cc1
